Test system: MAVER-1 mantle cell lymphoma (MCL) subcutaneous xenograft
Assay: MAVER-1 MCL subcutaneous xenograft model
Assay type: in vivo, NCG mice
Procedure: MAVER-1 cells are of mantle cell lymphoma (MCL) origin and were obtained from American Type Culture Collection (ATCC CRL-3008, Manassas, VA, DC, USA). Cells were grown in RPM 1640 medium (Corning, Cat #10-040-CVR), supplemented with 10% (v/v) fetal bovine serum (Gibco, Cat #10099-141C), and 100 μg/mL of penicillin and streptomycin (Gibco, Cat #15140-122). MAVER-1 cells were maintained as suspension cell cultures at 37° C. in a 5% CO2 atmosphere. Five to six-week-old female NCG mice were purchased from Gempharmatech of Information Technology Center. All animals were maintained under specific pathogen free (SPF) “full barrier” condition with free access to food and water. Mice were group-housed under a 12 h light:dark cycle (lights on at 08:00 h), at a temperature of 21-26° C. and 44-61% humidity in IVC cages (Lingyunboji (Beijing) Technology Co., Ltd.). Mice were fed with complete granulated feed with Co60 radiosterilization (Beijing Ke Ao Xie Li Feed Co., Ltd.).
On the day of implantation, MAVER-1 cells were harvested and re-suspended with appropriate volume of ice cold DPBS and same volume of Matrigel (Corning, Cat #356237) to give a final concentration of 1.5×10^7 cells/mL. Re-suspended cells were placed on ice prior to inoculation. The right front flank region of each mouse was cleaned with 75% ethanol prior to cell inoculation. Each animal was injected subcutaneously with 3×10^6 cells in 200 μL of cell suspension in the right front flank via a 26-gauge needle. After implantation, primary tumor volume was measured in two dimensions using a caliper.
Animals were randomly assigned into 7 groups with 10 mice per group according to body weight and tumor volume (100 mm^3-200 mm^3). The groups consisted of vehicle group, 5, 15 mg/kg of venetoclax with QD dosing, 5, 15 mg/kg of Compound 1 with QD dosing, and 2.5, 7.5 mg/kg of Compound 1 with BID dosing. Treatments were administered by oral gavage (p.o.) in a volume of 10 mL/kg body weight. Body weight was assessed immediately before dosing and volume dosed was adjusted accordingly.
Individual body weight was recorded twice weekly, with mice being monitored daily for clinical signs of toxicity for the duration of the study. Mice were euthanized using carbon dioxide when their tumor volume reached 2,000 mm^3, the tumor was ulcerated, or body weight loss exceeded 20%.
Tumor volume was calculated using the formula: V=0.5×(a×b^2) where a and b are the long and short diameters of the tumor, respectively. Tumor growth inhibition (TGI) was calculated using the following formula: % TGI=100×[1−(treatedt−treatedt0)/(vehiclet−vehiclet0)] (treated t=treated tumor volume at time t, treated t0=treated tumor volume at time 0, vehicle t=vehicle tumor volume at time t and vehicle t0=vehicle tumor volume at time 0)

| Compound | Mean Tumor volume (Day 14) (mm^3 ± SEM) (2.5 mg/kg BID × 17 p.o.) | TGI (Day 14) (2.5 mg/kg BID × 17 p.o.) | Mean Tumor volume (Day 14) (mm^3 ± SEM) (5 mg/kg QD × 17 p.o.) | TGI (Day 14) (5 mg/kg QD × 17 p.o.) | Mean Tumor volume (Day 14) (mm^3 ± SEM) (7.5 mg/kg BID × 17 p.o.) | TGI (Day 14) (7.5 mg/kg BID × 17 p.o.) | Mean Tumor volume (Day 14) (mm^3 ± SEM) (15 mg/kg QD × 17 p.o.) | TGI (Day 14) (15 mg/kg QD × 17 p.o.) | tumor growth suppression (in words) (mouse, in vivo) | anti-tumor activity relative to venetoclax (same total daily doses of 5 and 15 mg/kg) |
| --- | --- | --- | --- | --- | --- | --- | --- | --- | --- | --- |
| CC(C)c1ccccc1[C@@H]1CCCN1C1CC2(CCN(c3ccc(C(=O)NS(=O)(=O)c4ccc(NCC5CCC(C)(O)CC5)c([N+](=O)[O-])c4)c(Oc4cnc5[nH]ccc5c4)c3)CC2)C1 (stereo partly drawn) [Compound 1, 2-((1H-pyrrolo[2,3-b]pyridin-5-yl)oxy)-N-((4-((((1r,4r)-4-hydroxy-4-methylcyclohexyl)methyl)amino)-3-nitrophenyl)sulfonyl)-4-(2-((S)-2-(2-isopropylphenyl)pyrrolidin-1-yl)-7-azaspiro[3.5]nonan-7-yl)benzamide] | 511.5 ± 49.9 mm^3 | 77% | 383.5 ± 29.6 mm^3 | 86% | 136.2 ± 2.6 mm^3 | 103% | 140.5 ± 5.3 mm^3 | 103% | potently suppressed tumor growth in a dose-dependent manner | showed more anti-tumor activities relative to venetoclax |
| CC1(C)CCC(CN2CCN(c3ccc(C(=O)NS(=O)(=O)c4ccc(NCC5CCOCC5)c([N+](=O)[O-])c4)c(Oc4cnc5[nH]ccc5c4)c3)CC2)=C(c2ccc(Cl)cc2)C1 [Venetoclax, reference compound] | – | – | 1082.1 ± 109.4 mm^3 | 38% | – | – | 315.4 ± 23.1 mm^3 | 91% | – | – |
